Test results from patent US20050034189A1, “Chitin oligosaccharide elicitor- and gibberellin-responsive genes in plants, and uses thereof” (National Institute of Agrobiological Sciences, priority 2001, published 2005).
Read-outs that look alike come from different tables or passages of the source.

What was measured:
[1] = test system: CIGR1 gene and CIGR2 gene; test: Gibberellin responsiveness of CIGR1 and CIGR2 genes in suspension-cultured rice cells, Northern blot hybridization; format: cell-based, rice (Oryza sativa cv. Nipponbare); conditions: for induction of CIGR1 and CIGR2 gene expression by gibberellin species: ten-minute treatment of cultured rice cells
Procedure: (§1) (1) Cultured rice cells: The cultured cells of rice were induced from germinating rice seeds (Oryza sativa cv. Nipponbare) on a N6 agar plate containing 1 ppm 2,4-D (auxin; 2,4-dichlorophenoxyacetic acid). The cells were successively cultured in liquid N6 medium as follows. Once a week, cells of about 1 ml in volume were transferred to 150 ml N6 medium. Every two weeks, sizes of the clusters of cells were reduced by passing through a 20-mesh metallic mesh. Unfiltered cells that were cultured while shaking for four to six days after transferring to a 30-ml medium, were used for Northern blotting's RNA extraction.
(§2) (2) RNA extraction: The extraction of total RNA from cultured cells and green leaves of rice was carried out following the phenol-SDS method. A Polytron homogenizer was used to homogenize tissue in the presence of phenol (about 90% saturated with water) of about tenfold or more volume to the tissue volume, and the same volume of extraction buffer solution (50 mM Tris-HCl pH 9.0, 1% SDS, 50 mM NaCl). The aqueous phase obtained by centrifugation was repeatedly extracted with phenol. The total nucleic acid was precipitated by adding 0.6 volume of isopropanol to the extract and then stirring the mixture. After dissolving the precipitate in water, 0.25 volume of 10 M LiCl was added, and the mixture was cooled on ice. High molecular weight RNA was collected by centrifugation, washed with 70% ethanol, and then dissolved in a small volume of water to be used as an RNA sample.
(3) A method for gibberellin treatment of cultured cells and green leaves: The cultured cells were pre-washed with 2,4-D-free N6 medium several times, and then suspended in the same medium and shaken for two hours at 25° C. Gibberellin (GA3 dissolved in ethanol) was added to make the respective final concentrations and the cells were cultured while shaking for a predetermined time and used for RNA extraction. Nipponbare plants, grown three weeks after seeding, were sprayed with gibberellin. The third and fourth leaves were collected at certain intervals and total RNA was extracted. Elicitor treatment was carried out by directly adding aqueous elicitor solutions to cultured cells of rice.
(4) Hybridization: RNA for the Northern hybridization was denatured by the glyoxal method. 2.7 μl of glyoxal (final concentration, 1 M), 1.6 μl of sodium phosphate (pH 7.0, final concentration, 10 mM), and 8 μl of dimethylsulfoxide (final concentration, 50%) were added to 10 μg of total RNA (3.7 μl). The mixture was kept at 50° C. for one hour and then subjected to electrophoresis in 1.4% agarose (10 mM sodium phosphate, pH 7.0). After electrophoresis, RNA was blotted onto a nylon membrane (Biodyne A) and RNA was fixed onto the membrane by treatment at 80° C. for two hours. Hybridization was carried out in a mixture of 50% formamide, 0.1% SDS, 0.1 mg/ml salmon sperm DNA, 5×SSPE (0.9 M NaCl, 50 mM sodium phosphate, 5 mM EDTA, pH 7.4), and 5× Denhardt's solution (0.1% bovine serum albumin, 0.1% Ficoll, 0.1% polyvinylpyrrolidone) at 42° C. for one day. The membrane was then washed with 0.1×SSC (15 mM NaCl, 1.5 mM sodium citrate) three times for five minutes each at room temperature and twice for 30 minutes each at 65° C. and then exposed on X-ray film.
Therefore, the present inventors examined the gibberellin responsiveness of CIGR1 and CIGR2 genes. Suspension-cultured cells were treated with GA3, which is one of the active-type gibberellins, and changes in the expression of these two genes were analyzed over time. […] To maintain cell division activity, the medium used for culturing plant cells contained 2,4-D, which is one of auxins that are not easily metabolized by plants. It was thought that 2,4-D might suppress the action of gibberellin. Therefore, the cells were pre-washed with 2,4-D-free medium, and after two hours of pre-culture in the same medium, the cells were treated with GA3. […]

[2] = test system: nine plant bioassays; conditions: cited from earlier work
[3] = test system: CIGR1 gene and CIGR2 gene; test: Expression of CIGR1 and CIGR2 genes in green leaves of rice after GA3 spraying; format: in vivo, rice (Nipponbare); conditions: GA3 50 μM sprayed; third and fourth leaves, three weeks after seeding
Procedure: FIG. 10 depicts photographs representing the expression of CIGR1 gene and CIGR2 gene in green leaves of rice after GA3 treatment. After spraying rice plants with GA3, the third and fourth leaves were sampled at certain intervals. Total RNA extracted from the third and fourth leaves was analyzed by the Northern blot hybridization method.
as §2, with “sample. […]” for “sample.”
Cultured plant cells are thought to be in an undifferentiated state in the presence of auxins. […] Thus, the responses of these two genes to gibberellin were analyzed in green leaves of rice. […]

[4] = test system: CHRC; conditions: cited from earlier work
[5] = test system: CIGR1 gene and CIGR2 gene; test: Effect of inhibitors on induction of CIGR1 and CIGR2 genes by chitin heptamer in cultured rice cells; format: cell-based; conditions: inhibitor added ten minutes before; okadaic acid 1 μM, lavendustin A 30 μM, K-252a 20 μM
Procedure: (§3) FIG. 11 depicts photographs representing the effects of protein kinase inhibitors on elicitor response and gibberellin response. The following compounds were added ten minutes before the treatment with chitin heptamer (GN7) or gibberellin (GA3). (A): the positive control of the elicitor response; (B): okadaic acid (1 μM); (C), lavendustin A (30 μM); (D), K-252a (20 μM).
(§4) In addition, the effects of various inhibitors on the inductions by gibberellin and elicitors of CIGR1 gene and CIGR2 gene in the cultured rice cells were examined. Referring to the results of Kuo et al., cells pretreated with okadaic acid were tested. […] From these observations, protein phosphatase was presumed to be involved in signal transduction from gibberellin to CIGR1 gene and CIGR2 gene in cultured rice cells. Following these experiments, the effects of protein kinase inhibitors were studied.

[6] = test system: CIGR1 gene and CIGR2 gene; test: Effect of inhibitors on induction of CIGR1 and CIGR2 genes by GA3 in cultured rice cells; format: cell-based; conditions: inhibitor added ten minutes before; okadaic acid 1 μM, lavendustin A 30 μM, K-252a 20 μM
Procedure: as §3, §4

[7] = test system: α-amylase; conditions: aleurone layer of wheat, cited from earlier work
[8] = test system: elicitor-responsive genes; conditions: pretreatment with K-252a; suspension-cultured rice cells; cited from earlier work
[9] = test system: CIGR1 gene and CIGR2 gene; test: Elicitor responsiveness of CIGR1 and CIGR2 genes in cultured rice cells, Northern blot hybridization; format: cell-based, rice (Oryza sativa cv. Nipponbare)
Procedure: as §1, §2
(3) A method for gibberellin treatment of cultured cells and green leaves: The cultured cells were pre-washed with 2,4-D-free N6 medium several times, and then suspended in the same medium and shaken for two hours at 25° C. […]
Both CIGR1 gene and CIGR2 gene were identified as elicitor responsive genes using DNA microarray analysis. The elicitor responsiveness of these two genes was analyzed using Northern blot hybridization method. […]

[10] = test system: rice; conditions: reported; cited from earlier work
[11] = test system: PR1, PR10 and OsDRF1 genes; test: Induction of PR1, PR10 and OsDRF1 genes after DEX treatment of transformed rice, oligoarray and Northern; format: in vivo, rice (Nipponbare); conditions: transformed line #7; DEX 30 μM spray
Procedure: FIG. 12 depicts photographs representing the occurrence of expression induction of PR1, PR10 and OsDRF1 genes on induction of CIGR2 gene expression by DEX using a DEX-inducing type promoter. Transformed rice plants #7 and #9 were spray-treated with DEX or ethanol (EtOH; 0.1% v/v). The amounts of mRNA for each gene were measured using northern blot hybridization after zero, 24, 48 and 72 hours.
Using Agrobacterium methods, the plasmid was introduced into rice (Nipponbare). The derived transformed rice was inbred, and second generation seeds were obtained. Each independent line was spray-treated with dexamethasone (DEX; 30 μM, ethanol solution). Over a time course, total RNAs were extracted by phenol methods from the above ground part of the plant. Northern hybridization was carried out using the cDNA of ^32P-labeled CIGR2 as a probe. […] This line was analyzed using a 60mer oligoarray (Agilent) constructed from a total-length rice cDNA library. As a result, induction of three genes (PR1(AK107926), PR10, and OsDRF1 (Defense Response Gene Family 1; AK100816)) was discovered 48-72 hours after dexamethasone treatment. PR1 and PR10 are known to be involved in disease resistance. […]

[12] = ten-minute GA3 treatment, 2,4-D-free medium

SMILES	induction of CIGR1 and CIGR2 gene expression by gibberellin species [1]	physiological activity type of gibberellin [2]	inhibition of induction of both genes by chitin heptamer [5]	inhibition of induction of both genes by GA3 [6]	other results
C=C1C[C@]23C[C@@]1(O)CC[C@H]2[C@@]12CC[C@H](O)[C@@](C)(C(=O)O1)[C@H]2[C@@H]3C(=O)O [GA1]	induced the expression of both genes	active type	–	–	–
C=C1C[C@]23C[C@@]1(O)CC[C@H]2[C@@]12C=C[C@H](O)[C@@](C)(C(=O)O1)[C@H]2[C@@H]3C(=O)O [GA3]	induced the expression of both genes	active type	–	–	expression after GA3 treatment ([1]; cells pre-washed and pre-cultured two hours in 2,4-D-free medium): Transient expression with a maximum at ten minutes after treatment; change in the amount of expression after GA3 treatment ([1]; medium containing 2,4-D, up to three hours after treatment, both genes): no significant change; GA3 concentration at which induction of expression of both genes began to appear [1, 12]: 10^−6 M; GA3 concentration at which induction reached near saturation [1, 12]: ~10^−4 M; expression of both genes in green leaves after GA3 spraying [3]: very rapid transient expression with a maximum at 30 minutes after spraying; GA3 concentration required for induction of CHRC by gibberellin ([4]; chromoplasts of cucumber petals): at least 10^−7 M; GA3 concentration up to which CHRC expression level increased approximately linearly ([4]; cucumber petals): up to 10^−4 M
C=C1C[C@]23C[C@H]1CC[C@H]2[C@@]12CC[C@H](O)[C@@](C)(C(=O)O1)[C@H]2[C@@H]3C(=O)O [GA4]	induced the expression of both genes	active type	–	–	–
C=C1C[C@]23C[C@H]1CC[C@H]2[C@]1(C(=O)O)CC[C@H](O)[C@@](C)(C(=O)O)[C@H]1[C@@H]3C(=O)O [GA13]	only active type gibberellins induced the expression	inactive type	–	–	–
C=C1C[C@]23C[C@@]1(O)CC[C@H]2[C@]1(C(=O)O)CCC[C@@](C)(C(=O)O)[C@H]1[C@@H]3C(=O)O [GA17]	only active type gibberellins induced the expression	inactive type	–	–	–
COC(=O)[C@@]1(O)C[C@H]2O[C@]1(C)n1c3ccccc3c3c4c(c5c6ccccc6n2c5c31)C(=O)NC4 [K-252-A]	–	–	almost completely	almost completely	inhibition of gibberellin induction of α-amylase ([7]; listed as K252a): hardly inhibited; inhibition of induction of expression of elicitor-responsive genes [8]: strongly inhibited
O=C(O)c1cc(N(Cc2ccccc2O)Cc2cc(O)ccc2O)ccc1O [Lavendustin A]	–	–	hardly inhibited	almost completely	–
CC(=O)N[C@H]1[C@H](O[C@@H]([C@H](O)[C@H](C=O)NC(C)=O)[C@H](O)CO)O[C@H](CO)[C@@H](O[C@@H]2O[C@H](CO)[C@@H](O[C@@H]3O[C@H](CO)[C@@H](O[C@@H]4O[C@H](CO)[C@@H](O[C@@H]5O[C@H](CO)[C@@H](O[C@@H]6O[C@H](CO)[C@@H](O)[C@H](O)[C@H]6NC(C)=O)[C@H](O)[C@H]5NC(C)=O)[C@H](O)[C@H]4NC(C)=O)[C@H](O)[C@H]3NC(C)=O)[C@H](O)[C@H]2NC(C)=O)[C@@H]1O [chitin heptamer, N-acetylchitoheptaose]	–	–	–	–	response (induction of expression) of both genes to chitin oligomers (monomer to heptamer) and chitosan oligomers (tetramer, heptamer) [9]: strongest response; time for which expression continued to increase after chitin heptamer treatment ([9]; both genes): up to 90 minutes; mRNA amount of CIGR1 and CIGR2 genes after treatment with chitin heptamer ([9]; five minutes after treatment, both genes): Significant increases of mRNA amount; elicitor activity in rice depending on oligomer size [10]: strongest effects
C[C@@H]1C[C@H]2[C@@H]3CCC4=CC(=O)C=C[C@]4(C)[C@@]3(F)[C@@H](O)C[C@]2(C)[C@@]1(O)C(=O)CO [dexamethasone]	–	–	–	–	time after dexamethasone treatment at which induction of PR1, PR10 and OsDRF1 was discovered [11]: 48 to 72 h
C=C1[C@@H](O)[C@@H]2O[C@]3(CC[C@H](/C=C/[C@@H](C)[C@@H]4CC(C)=C[C@@]5(O[C@H](C[C@@](C)(O)C(=O)O)CC[C@H]5O)O4)O3)CC[C@H]2O[C@@H]1[C@@H](O)C[C@H](C)[C@H]1O[C@@]2(CCCCO2)CC[C@H]1C [okadaic acid]	–	–	hardly inhibited	inhibited almost completely	inhibition of gibberellin induction of α-amylase [7]: specifically inhibited
